Test results as given in patent publication US20240041042A1, “1-(PYRIDYL)-5-AZINYLPYRAZOLE DERIVATIVES, AND THEIR USE FOR CONTROL OF UNDESIRED PLANT GROWTH” (Bayer Aktiengesellschaft, priority 2020, published 2024).
Like-named read-outs stand apart in the source and are kept apart here.

Columns and labels:
Type in all cases: in vivo
Brassica napus (BRSNW) = settings: crop plant compatibility, in comparison to untreated controls
Method in brief: (§1)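 Scoring: visual, % of untreated control, about 3 weeks after a pre-emergence application to the soil surface. Application used WP or EC formulations diluted in water with 0.5% additive at 600 l/ha; dosage levels are marked by suffixes a, b and c.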

Glycine max (GLXMA) = settings: pre-emergence, crop plant compatibility, in comparison to untreated controls
Method in brief: as §1

Oryza sativa (ORYSA) [1] = settings: pre-emergence, crop plant compatibility, in comparison to untreated controls
Method in brief: as §1

[2] = test system: Triticum aestivum (TRZAS); settings: pre-emergence, 80 g/ha, crop plant compatibility, in comparison to untreated controls
Method in brief: as §1

Zea mays (ZEAMX) [3] = settings: pre-emergence, crop plant compatibility, in comparison to untreated controls
Method in brief: as §1

Oryza sativa (ORYSA) [4] = settings: crop plant compatibility
Method in brief: (§2)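 Effects were read visually as % versus untreated controls (0% = no effect, 100% = death) about 3 weeks post-treatment. Application was a post-emergence spray at the one-leaf stage of WP/EC formulations with 0.5% additive at 600 l/ha. Different dosages are denoted a, b and c.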

Zea mays (ZEAMX) [5] = settings: crop plant compatibility, effect vs untreated controls
Method in brief: as §2

Viola tricolor (VIOTR) [6] = test: Pre-emergence herbicidal action against VIOTR; settings: 320 g/ha, Viola tricolor
Method in brief: (§3)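 Pre-emergence soil-surface spray of compound, formulated as wettable powder or emulsion concentrate, in aqueous suspension or emulsion with 0.5% additive (600 l/ha; rate 320 g/ha or less). Activity rated visually after roughly 3 weeks in the greenhouse as a percentage of untreated controls, 0% meaning no difference.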

[7] = test system: Pharbitis purpurea (PHBPU); test: Post-emergence herbicidal action against PHBPU
Method in brief: (§4)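 Post-emergence greenhouse spray, one-leaf stage, 600 l/ha water plus 0.5% additive; WP or EC formulations; application rates 320 g/ha or lower. Visual % damage vs untreated controls at ~3 weeks.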

[8] = test system: Triticum aestivum (TRZAS); settings: crop plant compatibility, effect vs untreated controls
Method in brief: as §2

[9] = test system: Alopecurus myosuroides (ALOMY); test: Pre-emergence herbicidal action against ALOMY; settings: 320 g/ha; scored visually after about 3 weeks; 100% = plants have died
Method in brief: as §3

[10] = test system: Amaranthus retroflexus (AMARE); test: Pre-emergence herbicidal action against AMARE; settings: visual scoring after about 3 weeks vs untreated controls
Method in brief: as §3

Lolium rigidum (LOLRI) [11] = test: Pre-emergence herbicidal action against LOLRI; settings: dosage 320 g/ha
Method in brief: as §3

Setaria viridis (SETVI) [12] = test: Pre-emergence herbicidal action against SETVI; settings: dosage 320 g/ha
Method in brief: as §3

[13] = test system: Alopecurus myosuroides (ALOMY); test: Post-emergence herbicidal action against ALOMY; settings: visual rating about 3 weeks after treatment vs untreated controls (100% = plants have died, 0% = like control plants)
Method in brief: as §4

[14] = test system: Amaranthus retroflexus (AMARE); test: Post-emergence herbicidal action against AMARE
Method in brief: as §4

Avena fatua (AVEFA) [15] = test: Pre-emergence herbicidal action against AVEFA; settings: 320 g/ha, visual scoring after about 3 weeks vs untreated controls
Method in brief: as §3

[16] = test system: Echinochloa crus-galli (ECHCG); test: Pre-emergence herbicidal action against ECHCG; settings: dosage 320 g/ha
Method in brief: as §3

[17] = test system: Matricaria inodora (MATIN); test: Pre-emergence herbicidal action against MATIN; settings: dosage 320 g/ha
Method in brief: as §3

[18] = test system: Abutilon theophrasti (ABUTH); test: Post-emergence herbicidal action against ABUTH; settings: 320 g/ha, visual rating about 3 weeks after treatment vs untreated controls (100% = plants have died, 0% = like control plants)
Method in brief: as §4

Avena fatua (AVEFA) [19] = test: Post-emergence herbicidal action against AVEFA; settings: visual rating about 3 weeks after treatment
Method in brief: as §4

Lolium rigidum (LOLRI) [20] = test: Post-emergence herbicidal action against LOLRI; settings: dosage 320 g/ha
Method in brief: as §4

[21] = test system: Matricaria inodora (MATIN); test: Post-emergence herbicidal action against MATIN; settings: dosage 320 g/ha
Method in brief: as §4

Setaria viridis (SETVI) [22] = test: Post-emergence herbicidal action against SETVI
Method in brief: as §4

Viola tricolor (VIOTR) [23] = test: Post-emergence herbicidal action against VIOTR
Method in brief: as §4

[24] = 80 g/ha, effect in comparison to untreated controls
[25] = 320 g/ha, effect in comparison to untreated controls

CCOC(=O)COc1nn(-c2ncccc2OC)c(-c2ccc(F)nc2)c1I [Example I-386]
0%: Pre-emergence action against BRSNW in % (Brassica napus (BRSNW); 80 g/ha) | Pre-emergence action against BRSNW in % (Brassica napus (BRSNW); 320 g/ha) | Pre-emergence action against GLXMA in % (Glycine max (GLXMA); 80 g/ha) | Pre-emergence action against GLXMA in % (Glycine max (GLXMA); 320 g/ha) | Pre-emergence action against ORYSA in % (Oryza sativa (ORYSA) [1]; 80 g/ha) | Pre-emergence action against ZEAMX in % (Zea mays (ZEAMX) [3]; 80 g/ha) | Pre-emergence action against ZEAMX in % (Zea mays (ZEAMX) [3]; 320 g/ha) | Post-emergence action against ORYSA in % (Oryza sativa (ORYSA) [4]; [24]) | Post-emergence action against ORYSA in % (Oryza sativa (ORYSA) [4]; [25]) | Post-emergence action against ZEAMX in % (Zea mays (ZEAMX) [5]; 80 g/ha) | Post-emergence action against ZEAMX in % (Zea mays (ZEAMX) [5]; 320 g/ha)
20%: Pre-emergence action against ORYSA in % (Oryza sativa (ORYSA) [1]; 320 g/ha) | Pre-emergence action against TRZAS in % [2]

COC(=O)COc1nn(-c2ncccc2OC)c(-c2ccc(F)nc2)c1Cl [Example I-346]
90%: Post-emergence action against PHBPU in % ([7]; dosage 320 g/ha)
20%: Pre-emergence action against BRSNW in % (Brassica napus (BRSNW); 320 g/ha) | Pre-emergence action against GLXMA in % (Glycine max (GLXMA); 320 g/ha)
10%: Post-emergence action against TRZAS in % ([8]; 80 g/ha)
80%: Pre-emergence action against VIOTR in % (Viola tricolor (VIOTR) [6])
0%: Pre-emergence action against BRSNW in % (Brassica napus (BRSNW); 80 g/ha) | Pre-emergence action against GLXMA in % (Glycine max (GLXMA); 80 g/ha) | Pre-emergence action against ORYSA in % (Oryza sativa (ORYSA) [1]; 320 g/ha) | Pre-emergence action against TRZAS in % [2] | Pre-emergence action against ZEAMX in % (Zea mays (ZEAMX) [3]; 80 g/ha) | Pre-emergence action against ZEAMX in % (Zea mays (ZEAMX) [3]; 320 g/ha) | Post-emergence action against ORYSA in % (Oryza sativa (ORYSA) [4]; [24]) | Post-emergence action against ORYSA in % (Oryza sativa (ORYSA) [4]; [25]) | Post-emergence action against ZEAMX in % (Zea mays (ZEAMX) [5]; 80 g/ha) | Post-emergence action against ZEAMX in % (Zea mays (ZEAMX) [5]; 320 g/ha)

O=C(O)COc1nn(-c2ccccn2)c(-c2cncc(F)c2)c1C1CC1 [Example I-72]
100%: Pre-emergence action against ALOMY [9] | Pre-emergence action against LOLRI in % (Lolium rigidum (LOLRI) [11])
10%: Pre-emergence action against BRSNW in % (Brassica napus (BRSNW); 80 g/ha) | Pre-emergence action against TRZAS in % [2] | Post-emergence action against ORYSA in % (Oryza sativa (ORYSA) [4]; 20 g/ha, effect vs untreated controls) | Post-emergence action against TRZAS in % ([8]; 20 g/ha)
80%: Post-emergence action against AMARE in % ([14]; 80 g/ha, visual rating about 3 weeks after treatment vs untreated controls (100% = plants have died, 0% = like control plants))
20%: Pre-emergence action against ORYSA in % (Oryza sativa (ORYSA) [1]; 320 g/ha) | Post-emergence action against ORYSA in % (Oryza sativa (ORYSA) [4]; [24])
90%: Pre-emergence action against AMARE in % ([10]; 320 g/ha) | Pre-emergence action against SETVI in % (Setaria viridis (SETVI) [12]) | Pre-emergence action against VIOTR in % (Viola tricolor (VIOTR) [6]) | Post-emergence action against ALOMY in % ([13]; 80 g/ha)
0%: Pre-emergence action against GLXMA in % (Glycine max (GLXMA); 80 g/ha) | Pre-emergence action against ORYSA in % (Oryza sativa (ORYSA) [1]; 80 g/ha) | Pre-emergence action against ZEAMX in % (Zea mays (ZEAMX) [3]; 80 g/ha) | Pre-emergence action against ZEAMX in % (Zea mays (ZEAMX) [3]; 320 g/ha)

O=C(O)CSc1nn(-c2ccccn2)c(-c2ccc(F)nc2)c1Br [Example I-69]
0%: Pre-emergence action against ORYSA in % (Oryza sativa (ORYSA) [1]; 80 g/ha) | Pre-emergence action against TRZAS in % [2] | Post-emergence action against ORYSA in % (Oryza sativa (ORYSA) [4]; [24]) | Post-emergence action against TRZAS in % ([8]; 80 g/ha)
90%: Pre-emergence action against AMARE in % ([10]; 320 g/ha) | Pre-emergence action against ECHCG in % [16] | Pre-emergence action against MATIN in % [17] | Pre-emergence action against VIOTR in % (Viola tricolor (VIOTR) [6]) | Post-emergence action against ALOMY in % ([13]; 320 g/ha)
80%: Pre-emergence action against AMARE in % ([10]; 80 g/ha) | Pre-emergence action against AVEFA in % (Avena fatua (AVEFA) [15]) | Pre-emergence action against LOLRI in % (Lolium rigidum (LOLRI) [11]) | Post-emergence action against ABUTH in % [18] | Post-emergence action against AMARE in % ([14]; 320 g/ha, visual rating about 3 weeks after treatment) | Post-emergence action against AVEFA in % (Avena fatua (AVEFA) [19]; 80 g/ha) | Post-emergence action against LOLRI in % (Lolium rigidum (LOLRI) [20]) | Post-emergence action against MATIN in % [21] | Post-emergence action against PHBPU in % ([7]; dosage 80 g/ha) | Post-emergence action against PHBPU in % ([7]; dosage 320 g/ha) | Post-emergence action against SETVI in % (Setaria viridis (SETVI) [22]; dosage 80 g/ha) | Post-emergence action against SETVI in % (Setaria viridis (SETVI) [22]; dosage 320 g/ha) | Post-emergence action against VIOTR in % (Viola tricolor (VIOTR) [23]; 80 g/ha) | Post-emergence action against VIOTR in % (Viola tricolor (VIOTR) [23]; 320 g/ha)
10%: Post-emergence action against ORYSA in % (Oryza sativa (ORYSA) [4]; [25])
100%: Pre-emergence action against SETVI in % (Setaria viridis (SETVI) [12]) | Post-emergence action against AVEFA in % (Avena fatua (AVEFA) [19]; 320 g/ha)
20%: Pre-emergence action against BRSNW in % (Brassica napus (BRSNW); 80 g/ha) | Pre-emergence action against GLXMA in % (Glycine max (GLXMA); 320 g/ha)
